From patent publication US12202818B2, “Compounds and methods for CD73 modulation and indications therefor” (Opna Bio SA, priority 2020, dated 2025)

Tests used:
human CD73 = molecular target: T1, human CD73 (Homo sapiens, UniProt P21589); test: Inhibitor activity against CD73 in cell based assay (CD73 expressing CHO-K1 cells); settings: CHO-K1 cells expressing human CD73, 150 μM AMP, 4 hours of incubation; read-out: CHO-K1 CELL_VARIANT: CD73 IC50
T1 construct: expressed in transfected cells
T1 sequence (P21589 27-549): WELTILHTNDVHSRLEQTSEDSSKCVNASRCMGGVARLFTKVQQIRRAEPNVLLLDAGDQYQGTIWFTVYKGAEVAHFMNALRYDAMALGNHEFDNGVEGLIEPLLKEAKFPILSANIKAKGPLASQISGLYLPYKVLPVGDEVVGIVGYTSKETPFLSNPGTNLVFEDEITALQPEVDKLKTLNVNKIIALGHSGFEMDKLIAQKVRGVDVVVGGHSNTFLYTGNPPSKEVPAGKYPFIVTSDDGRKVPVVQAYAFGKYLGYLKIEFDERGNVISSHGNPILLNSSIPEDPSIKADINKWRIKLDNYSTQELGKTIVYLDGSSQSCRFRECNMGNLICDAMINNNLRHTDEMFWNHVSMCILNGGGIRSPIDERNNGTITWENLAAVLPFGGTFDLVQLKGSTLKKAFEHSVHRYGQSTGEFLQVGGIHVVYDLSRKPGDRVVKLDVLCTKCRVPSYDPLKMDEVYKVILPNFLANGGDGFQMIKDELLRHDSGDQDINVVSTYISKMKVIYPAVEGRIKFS
In short: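 AMP (150 μM) was added alongside 8 titrated compound doses (maximum 10 μM, 1:3 steps) to CHO-K1 cells stably expressing human CD73. After 4 h, supernatant AMP was measured indirectly with CellTiter-Glo 2.0 plus 1 μM ATP (30 min, RT). % inhibition versus high and low controls was fitted nonlinearly for IC50.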

[1] = molecular target: T2, Human CD73 (amino acid residues 27-549) (Homo sapiens, UniProt P21589); test: CD73 enzymatic assay (luciferase-based indirect assay, CellTiter-Glo); type: biochemical; settings: 0.4 nM CD73, 150 μM AMP, 1 hour at room temperature
T2 construct: Human CD73 (amino acid residues 27-549); His tag (N); made in house; host or cells: E. coli
T2 sequence (P21589 27-549): T1 sequence (P21589 27-549)
In short: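 Luciferase-coupled readout: AMP left after CD73 turnover suppresses CellTiter-Glo signal (1 μM ATP final, 30 min RT). Reaction beforehand: 150 μM AMP, 0.4 nM E. coli-made His-tagged CD73 residues 27-549, test compound, HEPES pH 7.4 with Tween-20, 1 h RT. % inhibition fitted nonlinearly for IC50.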

Cc1nn(CC(C)(CO)CCl)c(C)c1-c1cc(F)nc(O[C@@H]2CCN(c3cn[nH]c(=O)c3Cl)C2)c1 (stereo partly drawn) [P-0185, 4-chloro-5-((3R)-3-((4-(1-(3-chloro-2-(hydroxymethyl)-2-methylpropyl)-3,5-dimethyl-1H-pyrazol-4-yl)-6-fluoropyridin-2-yl)oxy)pyrrolidin-1-yl)pyridazin-3(2H)-one]
IC50 (human CD73): 0.001 to 10 µM
IC50 [1]: 0.001 to 10 µM

Cc1nc(C)c(-c2cc(F)nc(O[C@@H]3CCN(c4cn[nH]c(=O)c4Cl)C3)c2)s1 [P-0174, (R)-4-chloro-5-(3-((4-(2,4-dimethylthiazol-5-yl)-6-fluoropyridin-2-yl)oxy)pyrrolidin-1-yl)pyridazin-3(2H)-one]
IC50 (human CD73): 0.001 to 10 µM
IC50 [1]: 0.001 to 10 µM

Cc1noc(C)c1-c1cc(O[C@@H]2CCN(c3cn[nH]c(=O)c3Cl)C2)ccn1 [P-0138, (R)-4-chloro-5-(3-((2-(3,5-dimethylisoxazol-4-yl)pyridin-4-yl)oxy)pyrrolidin-1-yl)pyridazin-3(2H)-one]
IC50 (human CD73): 0.001 to 10 µM
IC50 [1]: 0.001 to 10 µM

O=c1[nH]ncc(N2CC[C@@H](Oc3cc(-c4ccc(S(=O)(=O)N5CCCC5)cc4)ccn3)C2)c1Cl [P-0246, (R)-4-chloro-5-(3-((4-(4-(pyrrolidin-1-ylsulfonyl)phenyl)pyridin-2-yl)oxy)pyrrolidin-1-yl)pyridazin-3(2H)-one]
IC50 (human CD73): 0.001 to 10 µM
IC50 [1]: 0.001 to 10 µM

O=c1[nH]ncc(N2CC[C@@H](Oc3cc(C4CCC(O)CC4)ccn3)C2)c1Cl (stereo partly drawn) [P-0031, (R)-4-chloro-5-(3-((4-(4-hydroxycyclohexyl)pyridin-2-yl)oxy)pyrrolidin-1-yl)pyridazin-3(2H)-one]
IC50 (human CD73): 0.001 to 10 µM
IC50 [1]: 0.001 to 10 µM

O=c1[nH]ncc(N2CC[C@@H](Oc3cc(N4[C@@H]5CC[C@H]4CC(F)(F)C5)ccn3)C2)c1Cl [P-0111, 4-chloro-5-((R)-3-((4-((1R,5S)-3,3-difluoro-8-azabicyclo[3.2.1]octan-8-yl)pyridin-2-yl)oxy)pyrrolidin-1-yl)pyridazin-3(2H)-one]
IC50 (human CD73): 10 to 100 µM
IC50 [1]: 0.001 to 10 µM

Cc1noc(C)c1-c1ccnc(O[C@@H]2CCN(c3cn[nH]c(=O)c3C#N)C2)c1 [P-0063, (R)-5-(3-((4-(3,5-dimethylisoxazol-4-yl)pyridin-2-yl)oxy)pyrrolidin-1-yl)-3-oxo-2,3-dihydropyridazine-4-carbonitrile]
IC50 (human CD73): 0.001 to 10 µM
IC50 [1]: 0.001 to 10 µM

Cc1nn(CCC(F)(F)F)c(C)c1-c1cc(F)nc(O[C@@H]2CCN(c3cn[nH]c(=O)c3Cl)C2)c1 [P-0166, (R)-4-chloro-5-(3-((4-(3,5-dimethyl-1-(3,3,3-trifluoropropyl)-1H-pyrazol-4-yl)-6-fluoropyridin-2-yl)oxy)pyrrolidin-1-yl)pyridazin-3(2H)-one]
IC50 (human CD73): 0.001 to 10 µM
IC50 [1]: 0.001 to 10 µM

O=c1[nH]ncc(N2CC[C@@H](Oc3cc(N4CCN(S(=O)(=O)NC5CC5)CC4)ccn3)C2)c1Cl [P-0229, (R)-4-(2-((1-(5-chloro-6-oxo-1,6-dihydropyridazin-4-yl)pyrrolidin-3-yl)oxy)pyridin-4-yl)-N-cyclopropylpiperazine-1-sulfonamide]
IC50 (human CD73): 0.001 to 10 µM
IC50 [1]: 0.001 to 10 µM

Cc1nn(CC2(C)COC2)c(C)c1-c1ccnc(O[C@H]2CN(c3cn[nH]c(=O)c3Cl)C[C@@H]2F)c1 [P-0096, 4-chloro-5-((3S,4S)-3-((4-(3,5-dimethyl-1-((3-methyloxetan-3-yl)methyl)-1H-pyrazol-4-yl)pyridin-2-yl)oxy)-4-fluoropyrrolidin-1-yl)pyridazin-3(2H)-one]
IC50 (human CD73): 0.001 to 10 µM
IC50 [1]: 0.001 to 10 µM

Nc1ccc(-c2ccnc(O[C@@H]3CCN(c4cn[nH]c(=O)c4Cl)C3)c2)c(F)c1 [P-0220, (R)-5-(3-((4-(4-amino-2-fluorophenyl)pyridin-2-yl)oxy)pyrrolidin-1-yl)-4-chloropyridazin-3(2H)-one]
IC50 (human CD73): 0.001 to 10 µM
IC50 [1]: 0.001 to 10 µM

CC1(CN2CCC(c3ccnc(O[C@@H]4CCN(c5cn[nH]c(=O)c5Cl)C4)c3)CC2)COC1 [P-0005, (R)-4-chloro-5-(3-((4-(1-((3-methyloxetan-3-yl)methyl)piperidin-4-yl)pyridin-2-yl)oxy)pyrrolidin-1-yl)pyridazin-3(2H)-one]
IC50 (human CD73): 0.001 to 10 µM
IC50 [1]: 0.001 to 10 µM

Cc1nn(CC(=O)NC2CC2)c(C)c1-c1ccnc(O[C@@H]2CCN(c3cn[nH]c(=O)c3Cl)C2)c1 [P-0040, (R)-2-(4-(2-((1-(5-chloro-6-oxo-1,6-dihydropyridazin-4-yl)pyrrolidin-3-yl)oxy)pyridin-4-yl)-3,5-dimethyl-1H-pyrazol-1-yl)-N-cyclopropylacetamide]
IC50 (human CD73): 0.001 to 10 µM
IC50 [1]: 0.001 to 10 µM

CC(=O)N1CCN(c2ccnc(O[C@@H]3CCN(c4cn[nH]c(=O)c4Cl)C3)c2)[C@@H](C)C1 [P-0103, 5-((R)-3-((4-((S)-4-acetyl-2-methylpiperazin-1-yl)pyridin-2-yl)oxy)pyrrolidin-1-yl)-4-chloropyridazin-3(2H)-one]
IC50 (human CD73): 10 to 100 µM
IC50 [1]: 0.001 to 10 µM

Cc1nn(C)c(C)c1-c1ccnc(O[C@H]2CN(c3cnn(CCO)c(=O)c3Cl)C[C@@H]2F)c1 [P-0142, 4-chloro-5-((3S,4S)-3-fluoro-4-((4-(1,3,5-trimethyl-1H-pyrazol-4-yl)pyridin-2-yl)oxy)pyrrolidin-1-yl)-2-(2-hydroxyethyl)pyridazin-3(2H)-one]
IC50 (human CD73): 0.001 to 10 µM
IC50 [1]: 0.001 to 10 µM

Cn1ncc(Cl)c1-c1ccnc(O[C@@H]2CCN(c3cn[nH]c(=O)c3Cl)C2)c1 [P-0155, (R)-4-chloro-5-(3-((4-(4-chloro-1-methyl-1H-pyrazol-5-yl)pyridin-2-yl)oxy)pyrrolidin-1-yl)pyridazin-3(2H)-one]
IC50 (human CD73): 0.001 to 10 µM
IC50 [1]: 0.001 to 10 µM

Cc1nn(C)cc1-c1cccc(O[C@@H]2CCN(c3cn[nH]c(=O)c3Cl)C2)c1 [P-0197, (R)-4-chloro-5-(3-(3-(1,3-dimethyl-1H-pyrazol-4-yl)phenoxy)pyrrolidin-1-yl)pyridazin-3(2H)-one]
IC50 (human CD73): 0.001 to 10 µM
IC50 [1]: 0.001 to 10 µM

CC1(C)CCCN1c1ccnc(O[C@@H]2CCN(c3cn[nH]c(=O)c3Cl)C2)c1 [P-0079, (R)-4-chloro-5-(3-((4-(2,2-dimethylpyrrolidin-1-yl)pyridin-2-yl)oxy)pyrrolidin-1-yl)pyridazin-3(2H)-one]
IC50 (human CD73): 0.001 to 10 µM
IC50 [1]: 0.001 to 10 µM

COCc1noc(C)c1-c1cc(O[C@@H]2CCN(c3cnn(CCO)c(=O)c3Cl)C2)ncn1 [P-0124, (R)-4-chloro-2-(2-hydroxyethyl)-5-(3-((6-(3-(methoxymethyl)-5-methylisoxazol-4-yl)pyrimidin-4-yl)oxy)pyrrolidin-1-yl)pyridazin-3(2H)-one]
IC50 (human CD73): 0.001 to 10 µM
IC50 [1]: 0.001 to 10 µM

CC1CCCCN1c1ccnc(O[C@@H]2CCN(c3cn[nH]c(=O)c3Cl)C2)c1 (stereo partly drawn) [P-0094, 4-chloro-5-((3R)-3-((4-(2-methylpiperidin-1-yl)pyridin-2-yl)oxy)pyrrolidin-1-yl)pyridazin-3(2H)-one]
IC50 (human CD73): 0.001 to 10 µM
IC50 [1]: 0.001 to 10 µM

CC1CNCCC1c1ccnc(O[C@@H]2CCN(c3cn[nH]c(=O)c3Cl)C2)c1 (stereo partly drawn) [P-0009, 4-chloro-5-((3R)-3-((4-(3-methylpiperidin-4-yl)pyridin-2-yl)oxy)pyrrolidin-1-yl)pyridazin-3(2H)-one]
IC50 (human CD73): 0.001 to 10 µM
IC50 [1]: 0.001 to 10 µM

O=c1c(Cl)c(N2CC[C@@H](Oc3cc(C4CCNCC4)ccn3)C2)cnn1CCO [P-0023, (R)-4-chloro-2-(2-hydroxyethyl)-5-(3-((4-(piperidin-4-yl)pyridin-2-yl)oxy)pyrrolidin-1-yl)pyridazin-3(2H)-one]
IC50 (human CD73): 0.001 to 10 µM
IC50 [1]: 0.001 to 10 µM

Cc1nn(C)c(C)c1-c1ccnc(O[C@@H]2CCN(c3cnn(CCCO)c(=O)c3Cl)C2)c1 [P-0127, (R)-4-chloro-2-(3-hydroxypropyl)-5-(3-((4-(1,3,5-trimethyl-1H-pyrazol-4-yl)pyridin-2-yl)oxy)pyrrolidin-1-yl)pyridazin-3(2H)-one]
IC50 (human CD73): 0.001 to 10 µM
IC50 [1]: 0.001 to 10 µM

Cc1nn(CC(C)(C)O)c(C)c1-c1ccnc(O[C@@H]2CCN(c3cn[nH]c(=O)c3Cl)C2)c1 [P-0038, (R)-4-chloro-5-(3-((4-(1-(2-hydroxy-2-methylpropyl)-3,5-dimethyl-1H-pyrazol-4-yl)pyridin-2-yl)oxy)pyrrolidin-1-yl)pyridazin-3(2H)-one]
IC50 (human CD73): 0.001 to 10 µM
IC50 [1]: 0.001 to 10 µM

Cc1nn(C2COC2)c(C)c1-c1cc(O[C@@H]2CCN(c3cnn(CCO)c(=O)c3Cl)C2)ncc1F [P-0020, (R)-4-chloro-5-(3-((4-(3,5-dimethyl-1-(oxetan-3-yl)-1H-pyrazol-4-yl)-5-fluoropyridin-2-yl)oxy)pyrrolidin-1-yl)-2-(2-hydroxyethyl)pyridazin-3(2H)-one]
IC50 (human CD73): 0.001 to 10 µM
IC50 [1]: 0.001 to 10 µM
